Patent publication US12568972B2, “Pyridazinol compounds and derivatives, preparation methods, herbicidal compositions and applications thereof” (Qingdao Kingagroot Chemical Compound Co., Ltd., priority 2018, dated 2026)

Tests used:
Test in all cases: Post-emergence test, weed control effect
Type in all cases: in vivo
Conditions in all cases: Dose 3000 g/ha, after 3 weeks
Amaranthus retroflexus = tested on: Amaranthus retroflexus
Excerpt: (§1) The activity level standard of harmful plant destruction (i.e. growth inhibition rate) is as follows: • Level 10: completely dead; • Level 9: above 90% growth inhibition rate; • Level 8: above 80% growth inhibition rate; • Level 7: above 70% growth inhibition rate; • Level 6: above 60% growth inhibition rate; • Level 5: above 50% growth inhibition rate; • Level 4: above 40% growth inhibition rate; • Level 3: above 30% growth inhibition rate; • Level 2: above 20% growth inhibition rate; • Level 1: below 20% growth inhibition rate; • Level 0: no effect.
(§2) The above described growth inhibition rates are fresh weight inhibition rates.
(§3) Experiment of post-emergence test: monocotyledonous and dicotyledonous weed seeds as well as main crop seeds (i.e., wheat, corn, rice, soybean, cotton, oilseed rape, millet and sorghum) were put into a plastic pot loaded with soil, then covered with 0.5-2 cm of soil, and the seeds were allowed to grow in good greenhouse environment. The test plants were treated at 2-3 leaf stage 2-3 weeks after sowing. The test compounds of the invention were dissolved in acetone respectively, then added with Tween-80 and diluted by a certain amount of water to give solutions with certain concentrations, and added with 80% vegetable oil methyl ester synergist at 1500 g/ha. The solution was sprayed to the plants with a sprayer. The plants were cultured for 3 weeks in the greenhouse.

Chenopodiaceae = tested on: Chenopodiaceae
Excerpt: as §1, §2, §3

Rorippa indica = tested on: Rorippa indica
Excerpt: as §1, §2, §3

Veronica polita = tested on: Veronica polita
Excerpt: as §1, §2, §3

CCS(=O)(=O)Oc1cc(C(F)(F)F)nnc1-c1ccc(F)cc1 [Compound 1-121]
10: weed control effect, Amaranthus retroflexus (activity level) (Amaranthus retroflexus) | weed control effect, Chenopodiaceae (activity level) (Chenopodiaceae) | weed control effect, Rorippa indica (activity level) (Rorippa indica) | weed control effect, Veronica polita (activity level) (Veronica polita)

O=S(=O)(Oc1cc(C(F)(F)F)nnc1-c1ccc(C(F)(F)F)cc1)C1CC1 [Compound 1-122]
10: weed control effect, Amaranthus retroflexus (activity level) (Amaranthus retroflexus) | weed control effect, Chenopodiaceae (activity level) (Chenopodiaceae) | weed control effect, Rorippa indica (activity level) (Rorippa indica) | weed control effect, Veronica polita (activity level) (Veronica polita)

CCc1cccc(-c2nnc(C(F)(F)F)cc2OS(=O)(=O)CS(C)(=O)=O)c1 [Compound 1-123]
10: weed control effect, Amaranthus retroflexus (activity level) (Amaranthus retroflexus) | weed control effect, Chenopodiaceae (activity level) (Chenopodiaceae) | weed control effect, Rorippa indica (activity level) (Rorippa indica) | weed control effect, Veronica polita (activity level) (Veronica polita)

O=S(=O)(NCCCCl)Oc1cc(C(F)(F)F)nnc1-c1cccc(F)c1 [Compound 1-124]
10: weed control effect, Amaranthus retroflexus (activity level) (Amaranthus retroflexus) | weed control effect, Chenopodiaceae (activity level) (Chenopodiaceae) | weed control effect, Rorippa indica (activity level) (Rorippa indica) | weed control effect, Veronica polita (activity level) (Veronica polita)

CN1CCN(S(=O)(=O)Oc2cc(C(F)(F)F)nnc2-c2ccc(F)cc2)CC1 [Compound 1-125]
10: weed control effect, Amaranthus retroflexus (activity level) (Amaranthus retroflexus) | weed control effect, Chenopodiaceae (activity level) (Chenopodiaceae) | weed control effect, Rorippa indica (activity level) (Rorippa indica) | weed control effect, Veronica polita (activity level) (Veronica polita)

Cc1ccc(S(=O)(=O)Oc2cc(C(F)(F)F)nnc2-c2ccnc(F)c2)cc1 [Compound 1-126]
10: weed control effect, Amaranthus retroflexus (activity level) (Amaranthus retroflexus) | weed control effect, Chenopodiaceae (activity level) (Chenopodiaceae) | weed control effect, Rorippa indica (activity level) (Rorippa indica) | weed control effect, Veronica polita (activity level) (Veronica polita)

Cc1ccc(S(=O)(=O)Oc2cc(C(F)(F)F)nnc2-c2ccc(F)c(F)c2)cc1 [Compound 1-127]
10: weed control effect, Amaranthus retroflexus (activity level) (Amaranthus retroflexus) | weed control effect, Chenopodiaceae (activity level) (Chenopodiaceae) | weed control effect, Rorippa indica (activity level) (Rorippa indica) | weed control effect, Veronica polita (activity level) (Veronica polita)

O=S(=O)(Oc1cc(C(F)(F)F)nnc1-c1ccc(F)c(F)c1)c1ccc(Cl)cc1F [Compound 1-128]
10: weed control effect, Amaranthus retroflexus (activity level) (Amaranthus retroflexus) | weed control effect, Chenopodiaceae (activity level) (Chenopodiaceae) | weed control effect, Rorippa indica (activity level) (Rorippa indica) | weed control effect, Veronica polita (activity level) (Veronica polita)

O=S(=O)(Oc1cc(C(F)(F)F)nnc1-c1ccc(F)c(F)c1)c1ccc(C(F)(F)F)cc1 [Compound 1-129]
10: weed control effect, Amaranthus retroflexus (activity level) (Amaranthus retroflexus) | weed control effect, Chenopodiaceae (activity level) (Chenopodiaceae) | weed control effect, Rorippa indica (activity level) (Rorippa indica) | weed control effect, Veronica polita (activity level) (Veronica polita)

O=S(=O)(Oc1cc(C(F)(F)F)nnc1-c1ccc(F)c(F)c1)c1ccc(Cl)cc1 [Compound 1-130]
10: weed control effect, Amaranthus retroflexus (activity level) (Amaranthus retroflexus) | weed control effect, Chenopodiaceae (activity level) (Chenopodiaceae) | weed control effect, Rorippa indica (activity level) (Rorippa indica) | weed control effect, Veronica polita (activity level) (Veronica polita)

Cc1cc(C)c(S(=O)(=O)Oc2cc(C(F)(F)F)nnc2-c2ccccc2)c(C)c1 [Compound 1-131]
10: weed control effect, Amaranthus retroflexus (activity level) (Amaranthus retroflexus) | weed control effect, Chenopodiaceae (activity level) (Chenopodiaceae) | weed control effect, Rorippa indica (activity level) (Rorippa indica) | weed control effect, Veronica polita (activity level) (Veronica polita)
